# In US8591892B2, “FTY720 increases CD74 expression and sensitizes cancer cells to anti-CD74 antibody-mediated cell death” (The Ohio State University, priority 2011, dated 2013):
# How the values were obtained:
# [1] = in subjects; cited from earlier work
# [2] = tested on: Jeko cells engrafted in SCID mice; assay: Preclinical model of human MCL in SCID mice, survival; assay type: in vivo, mouse; details: n=10/group, from day 15; FTY720 5 mg/kg i.p. daily 2 weeks; antibodies 15 mg/kg i.p. every three days
# Protocol: Evaluation of in vivo therapeutic activity of FTY720 and milatuzumab in the preclinical MCL model. SCID mice were injected i.v. with 40×10^6 JeKo cells and observed daily for signs of tumor burden.
# Six to eight-week old female SCID mice (cb17 scid/scid) were purchased from Taconic Farms (Hudson, N.Y.) and maintained in pathogen-free, isolation cages. All animals were depleted of murine NK cells with intra-peritoneal (i.p.) injections of 0.2 mg of rat anti-mouse interleukin-2 receptor β monoclonal antibody (TMβ1) 1 day prior to engraftment with human tumor cell lines and then every week. Forty-eight hours post intravenous injection of 40×10^6 Jeko cells via tail vein, 50 mice were randomly distributed into 10 cages. Animals in groups of ten were treated starting at day 15 after engraftment. […] The third group was treated with FTY720 (5 mg/kg) every day for 2 weeks via i.p. The fourth group received milatuzumab (15 mg/kg) every three days, via i.p. injection. The fifth group received the combination of FTY720 and milatuzumab. Animals were monitored daily for signs of tumor burden, including hind limb paralysis, respiratory distress, weight loss, ruffled coat, and distended abdomen. Body weight was measured weekly for the first 3 weeks and then daily. […]
# [3] = single agents, same dosage and delivery schedule; cited from earlier work
# Z-138 = details: Z-138, single agent, previous dose titration; read-out: LC50 (the source's name); cited from earlier work
# [4] = rat, 4 mg/kg single IV dose; cited from earlier work
# Mino = details: single agent, previous dose titration, read-out: LC50 (the source's name); cited from earlier work
# [5] = tested on: primary tumor cells from MCL patients; assay: Cell viability by annexin-V/PI staining and flow cytometry; assay type: cell-based, human; details: six MCL patients, 24 hours; FTY720 2.5 μM, immobilized milatuzumab 5 μg/ml
# Protocol: FIG. 4. FTY720 sensitizes MCL cell lines and primary patient tumor cells to milatuzumab-mediated cytotoxicity. (A) Four MCL cell lines and primary cells from 6 patients were treated with FTY720 and/or milatuzumab plus cross-linking antibodies at the indicated concentrations. (B) Patient characteristics. (C) Individual patient responses. (D) Representative histograms summarizing patient responses. Cell death was determined by annexin V/PI staining and flow cytometry at 24 hours. Data are shown as the percentage of annexin V−/PI− cells (live cells) and are normalized to untreated controls.
# Primary tumor cells were isolated from the peripheral blood/lymph nodes of patients with MCL. All patients studied were diagnosed with MCL according to the World Health Organization (WHO) classification of tumors (Swerdlow, 2008, World Health Organization Classification of Tumours of Haematopoetic and Lymphoid Tissues (ed 4th ed.) Lyon, France, International Agency on Research for Cancer). All samples contained at least 85% of CD19^+/CD20^+ B cells detected by flow cytometry. […]
# To assess lysosomal volume, FTY720 treated cells were incubated with LYSOTRACKER™ green DND-26. […] Cell viability was measured at 24 hours by dual staining with annexin-V FITC and propidium iodide (PI). A total of 10,000 events were collected and analyzed using WinMDI. […]
# Jeko-1 = details: Jeko-1, single agent, previous dose titration; read-out: LC50 (the source's name); cited from earlier work
# UPN-1 = details: UPN-1, single agent, previous dose titration; read-out: LC50 (the source's name); cited from earlier work
# [6] = tested on: HLA-DR and CD74 in cancer cell lines; assay: Flow cytometry of antigen expression after IFN-γ, summary over the panel; assay type: cell-based; details: two-day incubation with IFN-γ, Tables 4 and 5
# Protocol: We examined whether the ability of anti-CD74 MAbs to kill cancer cells can be increased by using IFN-γ as an inducer of antigen expression. Using a panel of diverse cancer cell lines (including NHL, MM, GBM, and pancreatic and colonic carcinomas), we examined IFN-γ-induced changes in surface and cytoplasmic CD74 expression. Sensitivity of the malignant cells to milatuzumab was assessed with and without IFN-γ by cytotoxicity assays.
# Expression of CD74, HLA-DR, and carcinoembryonic antigen (CEACAM5) was determined in untreated cells and cells exposed to 200 U of IFN-γ for 48 h by flow cytometry. Cells were stained with directly labeled MAbs in comparison to a directly labeled human IgG control. Antibodies were labeled using ALEXA FLUOR® 488 (Invitrogen, Carlsbad, Calif.). For determination of cytoplasmic antigen expression, cells were permeabilized prior to staining using the BD CYTOFIX/CYTOPERM™ kit (BD Biosciences, San Jose, Calif.).
# Two-day incubation with IFN-γ increased surface and cytoplasmic expression of CD74 and HLA-DR (Table 4, Table 5). In all 4 colon cancer lines, IFN-γ increased cytoplasmic expression of both antigens, and surface expression of HLA-DR in ¾ and CD74 in 2/4 (Table 4, Table 5). Upregulation of HLA-DR and CD74 ranged from 23-3700% (Table 4, Table 5).
# [7] = tested on: CD74 in 3 human AML cell lines; assay: Flow cytometry of CD74 with/without permeabilization and IFN-γ; assay type: cell-based; details: 3 AML lines, IFN-γ 40 and 200 U/mL
# Protocol: CD74 expression in bone marrow biopsy (BMB) specimens from non-M3 AML patients was evaluated by immunohistochemistry and, for 3 human AML cell lines, by flow cytometry, with/without permeabilization and with/without IFN-γ (40 and 200 U/mL). These cell lines were also tested in proliferation assays for responses to milatuzumab, with/without IFN-γ. In 13/14 BMB specimens, there was moderate to strong CD74 expression by leukemic blasts, which was mostly intracellular, usually with a perinuclear distribution (data not shown). […] IFN-γ induced intracellular CD74 in all 3 lines (from 85%-868%) (not shown).
molecule,measurement,setting,value
veltuzumab: humanized IgG1 antibody against CD20,immunogenicity,[1],less immunogenic in subjects than rituximab
"CCCCCCCCc1ccc(CCC(N)(CO)CO)cc1 [FTY720, fingolimod]",median survival,[2],31 days
same,weight loss or other side effects,[3],did not cause any observed weight loss or other significant side effects
same,CC50,Z-138,7.5 µM
same,maximum plasma concentration,[4],3.5 µM
same,CC50,Mino,7.5 µM
same,average cell death,[5],47%
same,CC50,Jeko-1,12.5 µM
same,CC50,UPN-1,7.5 µM
"IFN-γ: interferon-γ, agent inducing CD74 expression (protein, UniProt P01579 24-161, looked up) Interferon gamma: QDPYVKEAENLKKYFNAGHSDVADNGTLFLGILKNWKEESDRKIMQSQIVSFYFKLFKNFKDDQSIQKSVETIKEDMNVKFFNSNKKKRDDFEKLTNYSVTDLNVQRKAIHELIQVMAELSPAAKTGKRKRSQMLFRG",upregulation of HLA-DR and CD74,[6],23-3700%
same,upregulation of surface CD74,[7],69-117%
